In US20140120083A1, “TREATMENT OF CANCERS USING PI3 KINASE ISOFORM MODULATORS” (INFINITY PHARMACEUTICALS, INC., priority 2012, published 2014):

What was measured:
PI3K γ = target: T1, PI3K γ (Homo sapiens, UniProt P48736); assay: In vitro IC50, PI3K γ; assay type: biochemical
T1 construct: purchased Sigma
Description: (§1) An exemplary system is PI 3-Kinase (human) HTRF™ Assay from Upstate.

PI3K α = target: T2, PI3K α (Homo sapiens, UniProt P42336); assay: In vitro IC50, PI3K α; assay type: biochemical
T2 construct: purchased Upstate
Description: as §1

B cell = B cell proliferation; assay type: cell-based
PI3K δ = PI3K δ (Homo sapiens, UniProt O00329); assay: In vitro IC50, PI3K δ; assay type: biochemical; design: purchased Upstate
Description: as §1

PI3K β = PI3K β (Homo sapiens, UniProt P42338); assay: In vitro IC50, PI3K β; assay type: biochemical
Description: as §1

PI3K δ, sequence (O00329 whole entry): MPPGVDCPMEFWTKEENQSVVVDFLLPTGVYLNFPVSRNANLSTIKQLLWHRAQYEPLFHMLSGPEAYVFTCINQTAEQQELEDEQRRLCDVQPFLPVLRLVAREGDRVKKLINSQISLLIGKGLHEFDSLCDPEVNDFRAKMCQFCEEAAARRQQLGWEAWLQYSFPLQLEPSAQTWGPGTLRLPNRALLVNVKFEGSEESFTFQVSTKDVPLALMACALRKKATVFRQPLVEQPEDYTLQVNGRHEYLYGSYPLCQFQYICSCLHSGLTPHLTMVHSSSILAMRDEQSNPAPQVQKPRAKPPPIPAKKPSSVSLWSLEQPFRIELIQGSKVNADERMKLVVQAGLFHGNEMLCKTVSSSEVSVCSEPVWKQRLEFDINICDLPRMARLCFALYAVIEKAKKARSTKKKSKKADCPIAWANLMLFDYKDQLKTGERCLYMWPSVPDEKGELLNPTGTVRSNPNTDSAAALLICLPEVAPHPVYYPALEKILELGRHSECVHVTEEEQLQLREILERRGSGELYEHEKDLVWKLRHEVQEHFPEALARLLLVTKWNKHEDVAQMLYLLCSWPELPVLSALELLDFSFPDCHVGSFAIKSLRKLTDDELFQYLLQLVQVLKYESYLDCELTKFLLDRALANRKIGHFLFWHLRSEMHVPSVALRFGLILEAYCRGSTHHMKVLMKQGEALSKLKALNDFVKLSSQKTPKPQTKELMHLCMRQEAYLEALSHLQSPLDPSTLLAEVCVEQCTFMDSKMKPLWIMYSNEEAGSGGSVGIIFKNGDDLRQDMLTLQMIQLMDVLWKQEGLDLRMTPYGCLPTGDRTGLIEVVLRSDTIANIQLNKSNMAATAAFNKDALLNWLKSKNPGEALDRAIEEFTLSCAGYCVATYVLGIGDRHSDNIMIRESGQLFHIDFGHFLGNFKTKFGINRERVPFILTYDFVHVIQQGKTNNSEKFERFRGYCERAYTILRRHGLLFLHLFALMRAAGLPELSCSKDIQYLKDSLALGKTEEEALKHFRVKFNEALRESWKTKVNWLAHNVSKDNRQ
PI3K δ, sequence (P27986 whole entry partner): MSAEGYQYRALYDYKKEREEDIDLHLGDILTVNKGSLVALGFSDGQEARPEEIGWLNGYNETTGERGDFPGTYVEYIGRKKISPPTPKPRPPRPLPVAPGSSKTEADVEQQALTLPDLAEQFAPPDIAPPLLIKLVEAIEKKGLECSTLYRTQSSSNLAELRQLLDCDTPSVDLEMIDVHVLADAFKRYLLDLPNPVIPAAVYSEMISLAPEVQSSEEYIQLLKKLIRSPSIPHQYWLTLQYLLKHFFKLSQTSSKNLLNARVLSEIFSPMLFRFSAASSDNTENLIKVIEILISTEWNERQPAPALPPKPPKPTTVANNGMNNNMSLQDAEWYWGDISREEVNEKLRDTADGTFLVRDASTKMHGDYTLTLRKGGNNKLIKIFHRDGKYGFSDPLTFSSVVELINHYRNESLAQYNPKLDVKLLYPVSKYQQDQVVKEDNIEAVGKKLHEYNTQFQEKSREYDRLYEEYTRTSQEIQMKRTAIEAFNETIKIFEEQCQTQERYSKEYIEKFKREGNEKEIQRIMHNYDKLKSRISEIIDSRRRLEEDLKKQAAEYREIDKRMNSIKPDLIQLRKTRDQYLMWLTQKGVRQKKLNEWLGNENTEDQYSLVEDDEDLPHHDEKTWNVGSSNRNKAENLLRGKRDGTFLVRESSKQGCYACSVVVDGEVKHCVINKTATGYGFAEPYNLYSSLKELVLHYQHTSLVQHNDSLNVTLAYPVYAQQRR
PI3K β, sequence (P42338 whole entry): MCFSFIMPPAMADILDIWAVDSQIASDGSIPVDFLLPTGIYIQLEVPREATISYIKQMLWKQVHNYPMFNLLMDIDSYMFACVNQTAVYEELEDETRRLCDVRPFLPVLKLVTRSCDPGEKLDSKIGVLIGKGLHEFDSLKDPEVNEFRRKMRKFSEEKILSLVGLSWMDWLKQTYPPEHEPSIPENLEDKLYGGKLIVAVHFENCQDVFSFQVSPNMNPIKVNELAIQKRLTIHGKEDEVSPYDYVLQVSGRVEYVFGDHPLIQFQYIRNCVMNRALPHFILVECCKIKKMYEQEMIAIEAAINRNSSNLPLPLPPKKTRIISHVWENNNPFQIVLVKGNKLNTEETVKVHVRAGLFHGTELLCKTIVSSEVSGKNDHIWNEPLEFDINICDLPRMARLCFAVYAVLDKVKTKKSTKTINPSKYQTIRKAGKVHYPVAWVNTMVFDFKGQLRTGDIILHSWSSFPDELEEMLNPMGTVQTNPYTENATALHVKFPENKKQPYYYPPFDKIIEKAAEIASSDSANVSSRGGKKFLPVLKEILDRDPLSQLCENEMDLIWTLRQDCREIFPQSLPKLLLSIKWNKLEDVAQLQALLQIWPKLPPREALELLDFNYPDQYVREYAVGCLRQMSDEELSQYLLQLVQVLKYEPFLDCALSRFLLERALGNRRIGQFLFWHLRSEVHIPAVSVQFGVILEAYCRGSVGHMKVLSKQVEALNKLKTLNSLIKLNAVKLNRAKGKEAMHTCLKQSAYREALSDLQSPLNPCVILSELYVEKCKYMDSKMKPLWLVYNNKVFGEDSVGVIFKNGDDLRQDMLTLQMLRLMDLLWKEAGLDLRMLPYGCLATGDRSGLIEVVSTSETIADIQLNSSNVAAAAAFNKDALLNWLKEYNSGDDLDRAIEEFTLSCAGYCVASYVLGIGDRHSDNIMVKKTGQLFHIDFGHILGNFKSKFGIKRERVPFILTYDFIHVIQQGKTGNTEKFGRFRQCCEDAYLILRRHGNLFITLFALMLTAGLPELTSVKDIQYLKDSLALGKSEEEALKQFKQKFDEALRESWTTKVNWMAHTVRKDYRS
T1 sequence (P48736 whole entry): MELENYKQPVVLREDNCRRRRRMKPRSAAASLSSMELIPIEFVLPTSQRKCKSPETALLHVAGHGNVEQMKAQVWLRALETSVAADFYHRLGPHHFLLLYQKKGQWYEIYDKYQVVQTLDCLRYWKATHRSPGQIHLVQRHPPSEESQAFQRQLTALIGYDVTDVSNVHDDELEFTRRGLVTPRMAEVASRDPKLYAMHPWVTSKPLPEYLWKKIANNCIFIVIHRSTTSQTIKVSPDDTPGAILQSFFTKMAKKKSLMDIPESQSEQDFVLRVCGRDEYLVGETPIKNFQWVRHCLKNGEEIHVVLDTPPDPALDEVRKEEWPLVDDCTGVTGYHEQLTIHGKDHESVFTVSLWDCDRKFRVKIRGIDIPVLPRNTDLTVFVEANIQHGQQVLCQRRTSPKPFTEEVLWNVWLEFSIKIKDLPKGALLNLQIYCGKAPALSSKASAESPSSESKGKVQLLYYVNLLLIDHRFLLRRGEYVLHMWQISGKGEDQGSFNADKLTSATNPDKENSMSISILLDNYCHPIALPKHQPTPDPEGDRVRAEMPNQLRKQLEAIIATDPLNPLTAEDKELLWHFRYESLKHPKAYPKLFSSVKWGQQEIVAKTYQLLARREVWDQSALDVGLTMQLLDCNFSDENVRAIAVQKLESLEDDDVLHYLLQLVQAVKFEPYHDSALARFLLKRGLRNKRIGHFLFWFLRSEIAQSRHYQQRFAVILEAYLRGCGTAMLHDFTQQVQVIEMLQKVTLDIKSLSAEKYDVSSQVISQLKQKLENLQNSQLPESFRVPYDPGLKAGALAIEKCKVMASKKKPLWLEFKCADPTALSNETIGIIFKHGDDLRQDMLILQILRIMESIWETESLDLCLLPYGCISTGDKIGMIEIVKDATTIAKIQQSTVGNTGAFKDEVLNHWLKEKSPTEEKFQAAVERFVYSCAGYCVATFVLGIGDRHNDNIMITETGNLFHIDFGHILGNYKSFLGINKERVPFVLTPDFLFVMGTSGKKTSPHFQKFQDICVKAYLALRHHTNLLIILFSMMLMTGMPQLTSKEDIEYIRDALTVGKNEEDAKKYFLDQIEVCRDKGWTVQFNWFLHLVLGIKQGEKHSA
T2 sequence (P42336 whole entry): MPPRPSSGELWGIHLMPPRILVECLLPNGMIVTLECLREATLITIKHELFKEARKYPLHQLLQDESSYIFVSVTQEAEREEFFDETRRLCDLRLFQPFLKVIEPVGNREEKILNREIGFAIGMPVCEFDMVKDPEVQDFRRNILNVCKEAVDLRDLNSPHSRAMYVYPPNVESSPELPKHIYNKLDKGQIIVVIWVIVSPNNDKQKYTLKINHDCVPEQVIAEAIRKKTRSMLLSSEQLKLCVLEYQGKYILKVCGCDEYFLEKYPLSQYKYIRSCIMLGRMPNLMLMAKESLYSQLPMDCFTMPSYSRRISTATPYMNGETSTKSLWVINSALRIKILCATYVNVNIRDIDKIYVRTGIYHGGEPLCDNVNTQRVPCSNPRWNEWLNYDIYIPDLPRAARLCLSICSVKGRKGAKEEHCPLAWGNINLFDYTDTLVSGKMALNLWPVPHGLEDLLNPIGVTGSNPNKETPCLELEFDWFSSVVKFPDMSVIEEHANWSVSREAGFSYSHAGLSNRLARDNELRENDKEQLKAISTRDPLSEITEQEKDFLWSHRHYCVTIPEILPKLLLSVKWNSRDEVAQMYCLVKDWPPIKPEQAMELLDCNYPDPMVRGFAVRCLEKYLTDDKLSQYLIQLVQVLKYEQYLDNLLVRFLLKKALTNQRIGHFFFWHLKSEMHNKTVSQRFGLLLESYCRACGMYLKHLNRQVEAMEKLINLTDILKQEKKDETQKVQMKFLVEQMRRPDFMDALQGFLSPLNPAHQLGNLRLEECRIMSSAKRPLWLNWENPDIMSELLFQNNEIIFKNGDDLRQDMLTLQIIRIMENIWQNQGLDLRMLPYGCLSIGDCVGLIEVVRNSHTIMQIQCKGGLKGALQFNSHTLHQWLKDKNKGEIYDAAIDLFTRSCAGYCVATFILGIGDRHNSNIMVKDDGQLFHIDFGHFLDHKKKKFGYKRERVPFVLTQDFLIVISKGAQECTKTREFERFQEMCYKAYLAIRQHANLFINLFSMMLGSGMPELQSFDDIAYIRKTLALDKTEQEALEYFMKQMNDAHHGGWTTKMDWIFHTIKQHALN
T2 sequence (P27986 whole entry partner): as the sequence (P27986 whole entry partner) above

| Structure (SMILES) | IC50 (PI3K γ) [nM] | IC50 (PI3K α) [nM] | IC50 (PI3K δ) [nM] | IC50 (PI3K β) [nM] | EC50 (B cell) [nM] |
| --- | --- | --- | --- | --- | --- |
| Cc1ccccc1-n1c(Cn2nc(I)c3c(N)ncnc32)cc2cccc(C)c2c1=O [Compound 6] | < 100 | > 10000 | < 100 | – | < 100 |
| CC(=O)Nc1nc2ccc(-c3nn(Cc4cc5cccc(C)c5c(=O)n4-c4ccccc4C)c4ncnc(N)c34)cc2o1 [Compound 266] | < 100 | > 10000 | < 100 | > 10000 | – |
| Cc1cccc2cc([C@H](C)Nc3nc(N)ncc3Cl)n(C3CC3)c(=O)c12 [Compound 267] | < 1000 | > 10000 | < 100 | < 1000 | – |
| Cc1cccc2cc([C@H](C)Nc3nc(Cl)nc4[nH]cnc34)n(C3CC3)c(=O)c12 [Compound 268] | < 1000 | > 10000 | < 100 | < 100 | – |
| CC(=O)Nc1nc2ccc(-c3nn(Cc4cc5cccc(C)c5c(=O)n4-c4ccccc4)c4ncnc(N)c34)cc2o1 [Compound 269] | < 1000 | < 10000 | < 1000 | < 10000 | – |
| C[C@H](Nc1ncnc2[nH]cnc12)c1cc2cccc(Cl)c2c(=O)n1C1CC1 [Compound 270] | < 100 | < 1000 | < 100 | < 100 | – |
| Cc1cccc2cc([C@H](C)Nc3nc(N)ncc3F)n(-c3ccccc3)c(=O)c12 [Compound 271] | < 1000 | > 10000 | < 100 | > 10000 | – |
| Cc1cccc2cc([C@H](C)Nc3ncnc4[nH]cc(Br)c34)n(C3CC3)c(=O)c12 [Compound 272] | < 100 | < 1000 | < 100 | < 100 | – |
| Cc1cccc2cc([C@H](C)Nc3ncnc4[nH]ccc34)n(C3CC3)c(=O)c12 [Compound 273] | < 100 | < 10000 | < 100 | < 100 | – |
| CC(=O)Nc1nc2cc(-c3nn(Cc4cc5cccc(C)c5c(=O)n4-c4ccccc4C)c4ncnc(N)c34)ccc2s1 [Compound 274] | < 10000 | > 10000 | < 1000 | < 10000 | – |
| CC(=O)Nc1nc2cc(-c3nn(Cc4cc5cccc(C)c5c(=O)n4-c4ccccc4)c4ncnc(N)c34)ccc2s1 [Compound 275] | < 1000 | > 10000 | < 1000 | > 10000 | – |
| Cc1ccccc1-n1c(Cn2nc(-c3ccc4sc(N)nc4c3)c3c(N)ncnc32)cc2cccc(C)c2c1=O [Compound 276] | < 100 | < 1000 | < 100 | < 1000 | – |
| Cc1cccc2cc(Cn3nc(-c4ccc5sc(N)nc5c4)c4c(N)ncnc43)n(-c3ccccc3)c(=O)c12 [Compound 277] | < 100 | < 1000 | < 100 | < 1000 | – |
| Cc1cccc2cc([C@H](C)Nc3ncnc4[nH]cc(F)c34)n(C3CC3)c(=O)c12 [Compound 278] | < 100 | < 1000 | < 100 | < 100 | – |
| Cc1cccc2cc([C@H](C)Nc3nc(F)nc4[nH]cnc34)n(C3CC3)c(=O)c12 [Compound 279] | < 1000 | < 10000 | < 100 | < 100 | – |
| Cc1cccc2cc([C@H](C)Nc3ncnc4[nH]c(Cl)nc34)n(C3CC3)c(=O)c12 [Compound 280] | > 10000 | > 10000 | > 10000 | > 10000 | – |
| Cc1cccc2cc([C@H](C)Nc3nc(N)ncc3F)n(C3CC3)c(=O)c12 [Compound 281] | > 10000 | > 10000 | < 10000 | < 10000 | – |
| Cc1cccc2cc([C@H](C)Nc3nc(N)ncc3C(N)=O)n(C3CC3)c(=O)c12 [Compound 282] | > 10000 | > 10000 | > 10000 | > 10000 | – |
| Cc1cccc2cc([C@H](C)Nc3cc(N)nc(Cl)n3)n(C3CC3)c(=O)c12 [Compound 283] | > 10000 | > 10000 | > 10000 | > 10000 | – |
| Cc1cccc2cc([C@H](C)Nc3cc(N)nc(N)n3)n(C3CC3)c(=O)c12 [Compound 284] | < 10000 | > 10000 | < 10000 | > 10000 | – |
| Cc1cccc2cc([C@H](C)Nc3cc(N)nc(Cl)n3)n(-c3ccccc3)c(=O)c12 [Compound 285] | < 10000 | > 10000 | < 1000 | > 10000 | – |
| Cc1cccc2cc([C@H](C)Nc3cc(N)nc(N)n3)n(-c3ccccc3)c(=O)c12 [Compound 286] | < 1000 | > 10000 | < 1000 | > 10000 | – |
| Cc1cccc2cc([C@H](C)Nc3ncnc4[nH]cc(C(N)=O)c34)n(C3CC3)c(=O)c12 [Compound 287] | < 100 | < 1000 | < 100 | < 100 | – |
| Cc1cccc2cc([C@H](C)Nc3ncnc4[nH]cc(C(N)=O)c34)n(-c3ccccc3)c(=O)c12 [Compound 288] | < 100 | < 1000 | < 100 | < 100 | – |
| Cc1cccc2cc([C@H](C)Nc3ncnc4[nH]cc(C#N)c34)n(C3CC3)c(=O)c12 [Compound 289] | < 100 | < 1000 | < 100 | < 100 | – |
| Cc1ccccc1-n1c(Cn2nc(C(N)=O)c3c(N)ncnc32)cc2cccc(C)c2c1=O [Compound 298] | < 1000 | > 10000 | < 1000 | < 10000 | – |
| Cc1ccccc1-n1c(Cn2nc(C(=O)NO)c3c(N)ncnc32)cc2cccc(C)c2c1=O [Compound 300] | < 1000 | > 10000 | < 1000 | < 10000 | – |

Further lines, with some results ahead:

| IC50 (PI3K γ) [nM] | IC50 (PI3K α) [nM] | IC50 (PI3K δ) [nM] | IC50 (PI3K β) [nM] | Structure (SMILES) | EC50 (B cell) [nM] |
| --- | --- | --- | --- | --- | --- |
| < 100 | > 10000 | < 100 | < 1000 | Cc1cccc2cc([C@H](C)Nc3ncnc4[nH]cnc34)n(-c3cccc(F)c3)c(=O)c12 [Compound 290] | – |
| < 1000 | > 10000 | < 100 | < 1000 | Cc1cccc2cc([C@H](C)Nc3ncnc4[nH]nc(Cl)c34)n(C3CC3)c(=O)c12 [Compound 293] | – |
| < 10000 | > 10000 | < 100 | > 10000 | CCc1nn(Cc2cc3cccc(C)c3c(=O)n2-c2ccccc2C)c2ncnc(N)c12 [Compound 294] | – |
| < 100 | < 10000 | < 100 | < 10000 | Cc1ccccc1-n1c(Cn2nc(-c3ccc4nc(N)[nH]c4c3)c3c(N)ncnc32)cc2cccc(C)c2c1=O [Compound 295] | – |
| < 100 | < 10000 | < 100 | < 10000 | CC(=O)Nc1nc2ccc(-c3nn(Cc4cc5cccc(C)c5c(=O)n4-c4ccccc4C)c4ncnc(N)c34)cc2[nH]1 [Compound 296] | – |
| < 10000 | > 10000 | < 1000 | > 10000 | COC(=O)c1nn(CC2=Cc3cccc(C)c3C(=O)C2c2ccccc2C)c2ncnc(N)c12 (stereo not drawn) [Compound 299] | – |
| < 1000 | > 10000 | < 100 | < 10000 | Cc1cccc2cc(Cn3nc(C(F)F)c4c(N)ncnc43)n(-c3ccccc3)c(=O)c12 [Compound 308] | – |
| > 10000 | > 10000 | > 10000 | > 10000 | Cc1cccc2cc(Cn3nc(C4=CCOCC4)c4c(N)ncnc43)n(-c3ccccc3)c(=O)c12 [Compound 315] | – |
| < 1000 | > 10000 | < 100 | < 10000 | C=C(C)c1nn(Cc2cc3cccc(C)c3c(=O)n2-c2ccccc2)c2ncnc(N)c12 [Compound 316] | – |
| > 10000 | > 10000 | < 10000 | > 10000 | Cc1cccc2cc(Cn3nc(C(C)C)c4c(N)ncnc43)n(-c3ccccc3)c(=O)c12 [Compound 317] | – |
| < 100 | < 1000 | < 100 | < 100 | Cc1cccc2cc(C(C)Nc3nc(N)nc4[nH]cnc34)n(-c3ccccc3)c(=O)c12 (stereo not drawn) [Compound 320] | – |
| > 10000 | > 10000 | > 10000 | > 10000 | Cc1cccc2cc(C(C)Nc3nc(O)ncc3N)n(-c3ccccc3)c(=O)c12 (stereo not drawn) [Compound 321] | – |
| < 100 | < 1000 | < 100 | < 100 | Cc1cccc2cc([C@H](C)Nc3nc(N)nc4[nH]cnc34)n(-c3ccccc3)c(=O)c12 [Compound 323] | – |
| < 100 | > 10000 | < 100 | < 10000 | Cc1cccc2cc([C@H](C)Nc3nc(N)ncc3C(F)(F)F)n(-c3ccccc3)c(=O)c12 [Compound 324] | – |
| > 10000 | > 10000 | < 10000 | > 10000 | Cc1cccc2cc([C@H](C)Nc3ncc(C(F)(F)F)c(N)n3)n(-c3ccccc3)c(=O)c12 [Compound 325] | – |
